{
  "source": "patent US20070122422A1",
  "about": "“Sodium-independent small neutral amino acid transporter transporting L- and D- amino acids” (Japan Science and Technology Corporation, priority 2000, published 2007)",
  "target": "T1, human asc-1 (co-expressed with human 4F2hc) (Homo sapiens, UniProt Q9NS82)",
  "T1 construct": "expressed in transfected cells",
  "T1 sequence (Q9NS82 1-523)": "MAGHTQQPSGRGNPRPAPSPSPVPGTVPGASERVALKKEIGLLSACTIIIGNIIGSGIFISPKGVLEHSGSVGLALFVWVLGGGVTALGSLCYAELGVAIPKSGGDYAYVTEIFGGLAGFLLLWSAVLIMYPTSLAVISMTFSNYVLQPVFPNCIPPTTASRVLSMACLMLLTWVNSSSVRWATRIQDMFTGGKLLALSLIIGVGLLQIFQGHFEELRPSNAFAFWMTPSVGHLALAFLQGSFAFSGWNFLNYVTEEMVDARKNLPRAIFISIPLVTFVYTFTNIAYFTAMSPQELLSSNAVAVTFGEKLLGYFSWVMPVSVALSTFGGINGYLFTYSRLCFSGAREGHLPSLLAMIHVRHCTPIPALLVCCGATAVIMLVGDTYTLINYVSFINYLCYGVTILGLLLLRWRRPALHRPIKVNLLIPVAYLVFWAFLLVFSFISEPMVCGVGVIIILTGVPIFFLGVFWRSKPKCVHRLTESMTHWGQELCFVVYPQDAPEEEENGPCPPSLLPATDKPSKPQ",
  "assay": "Incorporation of 14C-alanine by oocytes co-expressing human asc-1 and human 4F2hc",
  "assay_type": "cell-based",
  "settings": "oocytes where both human asc-1 and 4F2hc were expressed together",
  "description": "Comparison was made between incorporation of ^14C-alanine in the case where human asc-1 gene cRNA was solely expressed in oocytes with that in the case where both human asc-1 gene cRNA and human 4F2hc gene cRNA were expressed in oocytes. Expression was carried out by injection of 12.5 ng of human asc-1 gene cRNA, 12.5 ng of human 4F2hc gene cRNA or 12.5 ng of human asc-1 gene cRNA/12.5 ng of human 4F2hc gene cRNA into oocytes and incubation was conducted for three days. With regard to the oocytes into which human asc-1 gene cRNA, 4F2hc gene cRNA or human asc-1 gene cRNA/4F2hc gene cRNA was injected, an experiment for incorporation of substrate was carried out according to Example 2(1) using alanine as a substrate.",
  "data": [
    {"molecule": "C[C@H](N)C(=O)O", "note": "[L-Alanine]", "values": [
      {"measurement": "incorporation of alanine", "value": "big incorporation"}
    ]}
  ]
}
